# Test results reported in article PMC11188305, “Reproductive and fetal toxicity studies of histamine H3 receptor antagonist DL76 used in mice to prevent maximal electroshock-induced seizure” (Frontiers in Pharmacology, 2024).
# Tests used:
# [1] = system: MES-induced seizures in mice; assay: Maximal electroshock (MES)-induced seizure, duration of tonic hind limb extension (THLE); type: in vivo, C57BL/6J mice
# Text: As previously described and with a slight modification in the intensity applied, seizures were elicited in mice with a 50-Hz alternating current of 120 mA intensity ([Kaminski et al., 2015]; [Song et al., 2020]; [Xiao et al., 2021]; [Hua et al., 2023]). The current was applied through ear electrodes for 0.2 s. Protection against the spread of MES-induced convulsion was defined as the abolition of the tonic hind limb extension (THLE) component of the seizure ([Kaminski et al., 2015]; [Song et al., 2020]; [Xiao et al., 2021]; [Hua et al., 2023]). The animals were divided into the following experimental groups, with eight mice in each: the control group injected with saline, the positive control group injected with 300 mg/kg of VPA (the minimal dose of VPA that protected animals against the spread of MES-induced convulsions without mortality in mice) ([Sadek et al., 2015]; [Bastaki et al., 2018]), and four groups that were administered the test compound DL76 at doses of 7.5 mg/kg, 15 mg/kg, 30 mg/kg, or 60 mg/kg. All drugs were administered 30–45 min before the MES challenge. In a further group of eight mice, the most promising and protective dose of DL76 (60 mg/kg, i.p.) was co-injected with RAM (10 mg/kg, i.p.), 30 min apart and 15 min prior to the MES test. Protection against the spread of MES-induced convulsion was defined as the abolition of the THLE component of the convulsion ([Sadek et al., 2015]; [Alachkar et al., 2018]; [Bastaki et al., 2018]).
# Statistical analyses employed SPSS 26.0 (IBM Middle East, Dubai, UAE). Data were presented as means ± SEM. […] Fetal abnormality data were presented as counts and percentages. Fisher’s exact test compared the percentages of abnormalities between the control group (saline) and the different dose groups. All tests were two-tailed, and significance was set at p < 0.05.
# [2] = system: MES-induced seizures in mice; design: method as in Sadek et al., 2015; Bastaki et al., 2018; conditions: ref Sadek et al., 2015, Bastaki et al., 2018; cited from earlier work
# C57BL/6 mice = system: C57BL/6 mice; design: method as in Chateauvieux et al., 2010; conditions: ref Chateauvieux et al., 2010; cited from earlier work
# [3] = system: experimental seizure models; design: method as in earlier work; conditions: acute and chronic experimental seizure models; ref Brown et al., 2001; Vohora et al., 2010; Witkin and Nelson, 2004; Sadek et al., 2015; Bastaki et al., 2018; cited from earlier work
# [4] = system: photosensitivity seizure model; design: method as in Lamb, 2020; conditions: adult patients; ref Lamb, 2020; cited from earlier work
compound,measurement,setting,value
"CCCC(CCC)C(=O)O [VPA, valproic acid, reference compound]",difference of protective effects between male and female mice,"[1]; VPA 300 mg/kg i.p., p = 0.164",no significant differences
same,protection against MES-induced convulsions,"[1]; female adult mice, VPA 300 mg/kg i.p.",significantly protected
same,minimal dose that protected animals against the spread of MES-induced convulsions without mortality,[2],300 mg/kg
same,malformations,C57BL/6 mice,induce malformations
"C[C@@H](N)Cc1c[nH]cn1 [RAM, (R)-α-methylhistamine, reference compound]",effect of RAM alone on MES-induced convulsions,"[1]; female adult mice, RAM 10 mg/kg i.p., p = 0.91 saline-saline vs. saline-RAM",results similar to those witnessed in male adult mice
same,effect on MES-induced convulsions when injected alone,"[1]; male adult mice, RAM 10 mg/kg i.p., p = 0.602",did not affect MES-induced convulsions
same,activity of RAM injected alone in MES-induced convulsion,"[1]; mice, both sexes, RAM 10 mg/kg",neither a protective nor an epileptogenic activity
CCC(C)(C)c1ccc(OCCCN2CCCCC2)cc1 [DL77],anticonvulsant efficacy,[3],anticonvulsant efficacy
Clc1ccc(CCCOCCCN2CCCCC2)cc1 [PIT],effects against the photosensitivity seizure model,[4],protective effects
S=C(NC1CCCCC1)N1CCC(c2cnc[nH]2)CC1 [thioperamide],anticonvulsant efficacy,[3],anticonvulsant efficacy
